Test results as given in US10131652B2, “Pyrimidinyloxy benzene derivatives as herbicides” (E. I. DU PONT DE NEMOURS AND COMPANY, priority 2014, dated 2018).

Tests used:
Assay type in all cases: in vivo
[1] = system: barnyardgrass (Echinochloa crus-galli); assay: Test B pre-/postemergence plant response
Summary of the method: (§1)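 Greenhouse pots, loam/sand soil; compound formulated with surfactant in non-phytotoxic solvent. Preemergence soil spray and postemergence spray at 1–2 leaf stage run simultaneously. Visual injury, 0–100, about 10 days post-treatment.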

corn (Zea mays) = assay: Test B pre-/postemergence plant response
Summary of the method: as §1

[2] = system: giant foxtail (Setaria faberii); assay: Test B pre-/postemergence plant response
Summary of the method: as §1

[3] = system: large (Lg) crabgrass (Digitaria sanguinalis); assay: Test B pre-/postemergence plant response
Summary of the method: as §1

[4] = system: morningglory (Ipomoea spp.); assay: Test B pre-/postemergence plant response
Summary of the method: as §1

[5] = system: pigweed (Amaranthus retroflexus); assay: Test B pre-/postemergence plant response
Summary of the method: as §1

[6] = system: velvetleaf (Abutilon theophrasti); assay: Test B pre-/postemergence plant response
Summary of the method: as §1

[7] = system: wheat (Triticum aestivum); assay: Test B pre-/postemergence plant response
Summary of the method: as §1

[8] = system: barnyardgrass (Echinochloa crus-galli); assay: Test C flooded paddy test plant response; conditions: Flood, 250 g ai/ha; scale of 0 to 100 where 0 is no effect and 100 is complete control; 13 to 15 days
Summary of the method: (§2)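 Water-applied treatment: compounds go directly into floodwater standing 3 cm over the soil of pots holding 2-leaf-stage plants. Depth is kept constant; plants stay in a greenhouse 13 to 15 days before visual comparison with controls on a 0–100 scale.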

[9] = system: ducksalad (Heteranthera limosa); assay: Test C flooded paddy test plant response; conditions: Flood, 250 g ai/ha; scale of 0 to 100 where 0 is no effect and 100 is complete control; 13 to 15 days
Summary of the method: as §2

rice (Oryza sativa) = assay: Test C flooded paddy test plant response; conditions: Flood, 250 g ai/ha; scale of 0 to 100 where 0 is no effect and 100 is complete control; 13 to 15 days
Summary of the method: as §2

[10] = system: small-flower umbrella sedge (Cyperus difformis); assay: Test C flooded paddy test plant response; conditions: Flood, 250 g ai/ha; scale of 0 to 100 where 0 is no effect and 100 is complete control; 13 to 15 days
Summary of the method: as §2

[11] = Postemergence, 500 g ai/ha, 0 to 100 scale (0 no effect, 100 complete control)
[12] = Preemergence, 500 g ai/ha, 0 to 100 scale where 0 is no effect and 100 is complete control
[13] = 125 g ai/ha, postemergence, 0 to 100 scale, 0 no effect, 100 complete control
[14] = Preemergence, 125 g ai/ha, 0 to 100 scale where 0 is no effect and 100 is complete control
[15] = Preemergence, 500 g ai/ha, 0 to 100 scale (0 no effect, 100 complete control)
[16] = Postemergence, 1000 g ai/ha, 0 to 100 scale (0 no effect, 100 complete control)
[17] = Preemergence, 1000 g ai/ha, 0 to 100 scale (0 no effect, 100 complete control)
[18] = 500 g ai/ha, postemergence, 0 to 100 scale, 0 no effect, 100 complete control
[19] = Preemergence, 125 g ai/ha, 0 to 100 scale (0 no effect, 100 complete control)

Cn1nc(C(F)(F)F)cc1-c1c(C#N)cccc1Oc1ncc(Cl)cn1 [Compound 136]
30: Plant response rating, Wheat [7, 12]
70: Plant response rating, Corn (corn (Zea mays); [11])
100: Plant response rating, Barnyardgrass [1, 12] | Plant response rating, Foxtail, Giant [2, 12] | Plant response rating, Crabgrass, Large [3, 12] | Plant response rating, Pigweed [5, 11] | Plant response rating, Pigweed [5, 12] | Plant response rating, Velvetleaf [6, 11] | Plant response rating, Velvetleaf [6, 12]
0: Barnyardgrass plant response rating [8] | Rice plant response rating (rice (Oryza sativa))
90: Plant response rating, Barnyardgrass [1, 11] | Plant response rating, Crabgrass, Large [3, 11] | Plant response rating, Morningglory [4, 11] | Plant response rating, Morningglory [4, 12]
80: Plant response rating, Foxtail, Giant [2, 11]
40: Plant response rating, Corn (corn (Zea mays); [12]) | Plant response rating, Wheat [7, 11] | Ducksalad plant response rating [9] | Sedge, Umbrella plant response rating [10]

FC(F)(F)c1cccc(-c2ccccc2Oc2ncc(Cl)cn2)n1 [Compound 19]
0: Plant response rating, Barnyardgrass [1, 13] | Plant response rating, Barnyardgrass [1, 11] | Plant response rating, Barnyardgrass [1, 14] | Plant response rating, Barnyardgrass [1, 15] | Plant response rating, Corn (corn (Zea mays); [13]) | Plant response rating, Corn (corn (Zea mays); [11]) | Plant response rating, Corn (corn (Zea mays); [14]) | Plant response rating, Corn (corn (Zea mays); [15]) | Plant response rating, Foxtail, Giant [2, 13] | Plant response rating, Foxtail, Giant [2, 11] | Plant response rating, Foxtail, Giant [2, 14] | Plant response rating, Crabgrass, Large [3, 13] | Plant response rating, Crabgrass, Large [3, 11] | Plant response rating, Crabgrass, Large [3, 14] | Plant response rating, Morningglory [4, 13] | Plant response rating, Morningglory [4, 11] | Plant response rating, Morningglory [4, 14] | Plant response rating, Morningglory [4, 15] | Plant response rating, Pigweed [5, 13] | Plant response rating, Pigweed [5, 11] | Plant response rating, Pigweed [5, 14] | Plant response rating, Velvetleaf [6, 13] | Plant response rating, Velvetleaf [6, 11] | Plant response rating, Velvetleaf [6, 14] | Plant response rating, Velvetleaf [6, 15] | Plant response rating, Wheat [7, 13] | Plant response rating, Wheat [7, 11] | Plant response rating, Wheat [7, 14] | Plant response rating, Wheat [7, 15] | Barnyardgrass plant response rating [8] | Ducksalad plant response rating [9] | Rice plant response rating (rice (Oryza sativa)) | Sedge, Umbrella plant response rating [10]
50: Plant response rating, Crabgrass, Large [3, 15]
70: Plant response rating, Foxtail, Giant [2, 15]
20: Plant response rating, Pigweed [5, 15]

Cn1cc(-c2ccccc2Oc2ncc(Cl)cn2)cn1 [Compound 11]
0: Plant response rating, Barnyardgrass [1, 13] | Plant response rating, Barnyardgrass [1, 14] | Plant response rating, Barnyardgrass [1, 15] | Plant response rating, Corn (corn (Zea mays); [13]) | Plant response rating, Corn (corn (Zea mays); [11]) | Plant response rating, Corn (corn (Zea mays); [14]) | Plant response rating, Corn (corn (Zea mays); [15]) | Plant response rating, Foxtail, Giant [2, 13] | Plant response rating, Foxtail, Giant [2, 11] | Plant response rating, Foxtail, Giant [2, 14] | Plant response rating, Foxtail, Giant [2, 15] | Plant response rating, Crabgrass, Large [3, 14] | Plant response rating, Crabgrass, Large [3, 15] | Plant response rating, Morningglory [4, 14] | Plant response rating, Pigweed [5, 14] | Plant response rating, Wheat [7, 13] | Plant response rating, Wheat [7, 11] | Plant response rating, Wheat [7, 14] | Plant response rating, Wheat [7, 15] | Barnyardgrass plant response rating [8] | Ducksalad plant response rating [9] | Rice plant response rating (rice (Oryza sativa)) | Sedge, Umbrella plant response rating [10]
30: Plant response rating, Pigweed [5, 15]
10: Plant response rating, Barnyardgrass [1, 11] | Plant response rating, Crabgrass, Large [3, 13] | Plant response rating, Crabgrass, Large [3, 11] | Plant response rating, Morningglory [4, 13] | Plant response rating, Pigweed [5, 13] | Plant response rating, Velvetleaf [6, 13] | Plant response rating, Velvetleaf [6, 14] | Plant response rating, Velvetleaf [6, 15]
20: Plant response rating, Morningglory [4, 11] | Plant response rating, Pigweed [5, 11] | Plant response rating, Velvetleaf [6, 11]

Cc1ccc(Oc2ncc(Cl)cn2)c(-c2cccc(OC(F)(F)F)c2)c1 [Compound 44]
70: Plant response rating, Crabgrass, Large [3, 12] | Plant response rating, Velvetleaf [6, 11]
0: Plant response rating, Barnyardgrass [1, 14] | Plant response rating, Corn (corn (Zea mays); [13]) | Plant response rating, Corn (corn (Zea mays); [14]) | Plant response rating, Corn (corn (Zea mays); [12]) | Plant response rating, Foxtail, Giant [2, 13] | Plant response rating, Foxtail, Giant [2, 14] | Plant response rating, Morningglory [4, 14] | Plant response rating, Morningglory [4, 12] | Plant response rating, Pigweed [5, 14] | Plant response rating, Velvetleaf [6, 14] | Plant response rating, Wheat [7, 13] | Plant response rating, Wheat [7, 11] | Plant response rating, Wheat [7, 14] | Plant response rating, Wheat [7, 12] | Barnyardgrass plant response rating [8] | Ducksalad plant response rating [9] | Rice plant response rating (rice (Oryza sativa)) | Sedge, Umbrella plant response rating [10]
10: Plant response rating, Barnyardgrass [1, 13] | Plant response rating, Barnyardgrass [1, 12] | Plant response rating, Foxtail, Giant [2, 11] | Plant response rating, Foxtail, Giant [2, 12] | Plant response rating, Crabgrass, Large [3, 13] | Plant response rating, Crabgrass, Large [3, 14] | Plant response rating, Pigweed [5, 12]
30: Plant response rating, Morningglory [4, 11] | Plant response rating, Velvetleaf [6, 13]
50: Plant response rating, Pigweed [5, 11]
20: Plant response rating, Barnyardgrass [1, 11] | Plant response rating, Corn (corn (Zea mays); [11]) | Plant response rating, Crabgrass, Large [3, 11] | Plant response rating, Morningglory [4, 13] | Plant response rating, Pigweed [5, 13] | Plant response rating, Velvetleaf [6, 12]

Fc1cccc(Oc2ncc(Cl)cn2)c1-c1cccc(OC(F)(F)F)c1 [Compound 46]
50: Sedge, Umbrella plant response rating [10]
70: Plant response rating, Morningglory [4, 16]
90: Plant response rating, Barnyardgrass [1, 16]
0: Plant response rating, Corn (corn (Zea mays); [17])
60: Ducksalad plant response rating [9]
35: Rice plant response rating (rice (Oryza sativa))
10: Plant response rating, Morningglory [4, 17] | Plant response rating, Wheat [7, 17]
80: Plant response rating, Barnyardgrass [1, 17]
100: Plant response rating, Foxtail, Giant [2, 16] | Plant response rating, Foxtail, Giant [2, 17] | Plant response rating, Crabgrass, Large [3, 16] | Plant response rating, Crabgrass, Large [3, 17] | Plant response rating, Pigweed [5, 16] | Plant response rating, Pigweed [5, 17] | Plant response rating, Velvetleaf [6, 16]
20: Plant response rating, Corn (corn (Zea mays); [16]) | Plant response rating, Velvetleaf [6, 17] | Plant response rating, Wheat [7, 16] | Barnyardgrass plant response rating [8]

N#Cc1cccc(Oc2ncc(Br)cn2)c1-c1ccc(Cl)cn1 [Compound 204]
50: Plant response rating, Pigweed [5, 13]
0: Plant response rating, Barnyardgrass [1, 13] | Barnyardgrass plant response rating [1, 19] | Plant response rating, Corn (corn (Zea mays); [13]) | Plant response rating, Corn (corn (Zea mays); [18]) | Corn plant response rating (corn (Zea mays); [19]) | Plant response rating, Corn (corn (Zea mays); [12]) | Plant response rating, Foxtail, Giant [2, 13] | Plant response rating, Morningglory [4, 13] | Morningglory plant response rating [4, 19] | Plant response rating, Velvetleaf [6, 13] | Velvetleaf plant response rating [6, 19] | Plant response rating, Wheat [7, 13] | Plant response rating, Wheat [7, 18] | Wheat plant response rating [7, 19] | Plant response rating, Wheat [7, 12] | Barnyardgrass plant response rating [8] | Ducksalad plant response rating [9] | Rice plant response rating (rice (Oryza sativa)) | Sedge, Umbrella plant response rating [10]
90: Crabgrass, Large plant response rating [3, 19] | Plant response rating, Pigweed [5, 18]
40: Plant response rating, Crabgrass, Large [3, 18]
60: Foxtail, Giant plant response rating [2, 19] | Plant response rating, Velvetleaf [6, 12]
30: Plant response rating, Barnyardgrass [1, 12] | Plant response rating, Foxtail, Giant [2, 18]
100: Plant response rating, Foxtail, Giant [2, 12] | Plant response rating, Crabgrass, Large [3, 12] | Pigweed plant response rating [5, 19] | Plant response rating, Pigweed [5, 12]
10: Plant response rating, Barnyardgrass [1, 18] | Plant response rating, Crabgrass, Large [3, 13] | Plant response rating, Morningglory [4, 18] | Plant response rating, Morningglory [4, 12] | Plant response rating, Velvetleaf [6, 18]
